From patent US20160095861A1, “OPHTHALMIC OINTMENTS COMPRISING VALGANCICLOVIR HYDROCHLORIDE FOR TREATING INFECTIVE EYE DISEASES” (SKIRON BIOSCIENCES, priority 2014, published 2016)
Where a name gives a salt, the structure may show the parent alone.

Assays:
[1] = system: CMV-induced inflammation in the eye; test: Valganciclovir hydrochloride ophthalmic ointments tested in a patient with CMV-induced inflammation in the eye (Example 4); format: in vivo, human; conditions: topical ophthalmic ointment, 1% w/w and 5% w/w, one patient
Procedure: The 1% w/w and 5% w/w valganciclovir hydrochloride ophthalmic ointments were tested in a patient with CMV-induced inflammation in the eye.

[2] = system: hypertensive anterior uveitis associated with clinical signs of cytomegalovirus (CMV) iritis; test: Case report: topical valganciclovir for hypertensive anterior uveitis with clinical signs of CMV iritis (Example 5); format: in vivo, human
Procedure: Valganciclovir was extracted from the tablet form (450 mg, Valcyte, Roche). Briefly, tablets were dissolved in 0.001N HCl (2 ml per tablet), the insoluble excipients were isolated by centrifugation at 16,000 g, the solution was then filtered through 0.2 μm filter into ice-cold isopropanol (20 ml per tablet) leading to precipitation of the valganciclovir. The precipitate was spun down at 3,000 g, isopropanol was decanted and remaining volatile solvents were removed in the lyophilizer. The identity of valganciclovir was confirmed by liquid chromatography-mass spectrometry (LC-MS). 1% (w/w) valganciclovir ointment in the oleaginous base (20% mineral oil and 80% white petrolatum) was made by following standard compounding practices.
The patient was referred to us […] with chronic low-grade iritis and IOPs that were not adequately managed with medications (prednisolone acetate, brimonidine, and dorzolamide/timolol). Based on the history, pattern of keratic precipitates, mild anterior chamber inflammation, iris atrophy and elevated IOP (25 mmHg in the right eye and 16 mmHg in the left eye) CMV iritis was suspected. […]. PCR of the aqueous was negative for CMV, herpes simplex virus (HSV), and varicella-zoster virus (VZV) DNA.^6 However, because we had previously observed false negative PCR results in a substantial proportion of eyes suspected to have CMV iritis on clinical grounds, we decided to start a course of oral valganciclovir (900 mg twice daily). Within six weeks their IOP returned to normal levels and after 3 months all keratic precipitates completely resolved.
Nine months after the start of valganciclovir therapy, valganciclovir was discontinued and twice daily ganciclovir gel, 0.15%, was started. […] The patient refused to restart oral valganciclovir due to concerns about the toxicity of systemic valganciclovir, and continued with ganciclovir gel, topical corticosteroids, and topical anti-hypertensives.
At this same time, the patient began treating their condition with self-compounded topical valganciclovir. They initially wore a contact lens soaked overnight in 5% valganciclovir and later formulated 5% valganciclovir eye drops, which they administered 2-4 times per day. With this approach the patient's ocular inflammation and IOP improved and surgery was postponed, but the patient still required topical corticosteroids and topical anti-hypertensive medications. After 3 years of controlled inflammation on valganciclovir eye drops, the patient became concerned about medication stability and began formulating 1% valganciclovir ointment in an oleaginous base (80% white petrolatum and 20% mineral oil). […] With long-term use of topical valganciclovir ointment, the patient was able to taper off topical corticosteroids and topical anti-hypertensives and has remained stable since then (9 months).

CC(C)[C@H](N)C(=O)OCC(CO)OCn1cnc2c(=O)nc(N)[nH]c21 (stereo partly drawn) [valganciclovir, valganciclovir hydrochloride]
control of the inflammation and lowering of the intraocular pressure [1]: effectiveness | ocular inflammation and intraocular pressure ([2]; oral valganciclovir together with topical corticosteroids): ocular inflammation resolved and intraocular pressure normalized | disease status after dose reduction ([2]; oral, 450 mg twice daily): the disease remained quiet | leukopenia (complete blood counts tested periodically) ([2]; oral, 900 mg twice daily): no leukopenia developed | time until IOP returned to normal levels ([2]; oral, 900 mg twice daily): six | time until all keratic precipitates completely resolved ([2]; oral, 900 mg twice daily): 3 months
